Laboratory results reported in the supplement of paper PMC12317010.
Counter-ions that a name gives are not always drawn.

Experiment: collision cross section in nitrogen (drift tube, single-field); higher = larger gas-phase ion size
[1] = ion type: [M-H], ion source: ESI, ion mode: Negative
[2] = ion type: [M+H], ion source: ESI, ion mode: Positive
[3] = ion type: [M+Na], ion source: ESI, ion mode: Positive
[4] = ion type: [M+H], ion source: APCI, ion mode: Positive
[5] = ion source: ESI, ion mode: Positive, ion type: [M]+ (permanent cation)
[6] = ion type: [M+], ion source: APCI, ion mode: Positive
[7] = ion source: APCI, ion mode: Positive, ion type: [M]+ (permanent cation)
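Further: chemical standards at 10 µM analysed by drift tube IMS-QTOF MS in about 3.95 torr nitrogen, mean of duplicate injections differing ≤1%, mass error below 10 ppm.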

SMILES | collision cross section in nitrogen [1] [Å²] | collision cross section in nitrogen [2] [Å²] | collision cross section in nitrogen [3] [Å²] | collision cross section in nitrogen [4] [Å²] | other results
O=C1CCCCCN1SSN1CCCCCC1=O [1,1'-Disulfanediyldiazepan-2-one] | – | – | 168.7 | – | –
CC1=Nc2ccc3ccccc3c2C1(C)C [1,1,2-Trimethyl-1H-benzo[e]indole] | – | 146.7 | – | 145.8 | –
CCCCN(CCCC)C(=O)N(CCCC)CCCC [1,1,3,3-Tetrabutylurea] | – | 177.9 | 194 | 177.3 | –
Oc1ccc(C2(c3ccc(O)c(C4CCCCC4)c3)CCCCC2)cc1C1CCCCC1 [1,1-Bis(3-cyclohexyl-4-hydroxyphenyl)cyclohexane] | 217.2 | – | 218.4 | – | –
C[N+]1(C)CCCCC1 [1,1-Dimethylpiperidinium chloride] | – | – | – | – | collision cross section in nitrogen [5]: 121.2 Å²
CC(O)CN(CCN(CC(C)O)CC(C)O)CC(C)O (stereo not drawn) [1,1′,1′′,1′′′-(Ethylenedinitrilo)tetrakis(2-propanol)] | 168.6 | 166.8 | 168.6 | 166.8 | –
CN1C(C)(C)CC(O)CC1(C)C [1,2,2,6,6-Pentamethylpiperidin-4-ol] | – | 136.9 | – | 136 | –
O=C1NC(=O)C2CC=CCC12 (stereo not drawn) [1,2,3,6-Tetrahydrophthalimide] | 132.6 | – | – | – | –
O=c1nn[nH]c2ccccc12 [1,2,3-Benzotriazin-4(1H)-one] | 126.4 | – | – | – | –
c1ccc2[nH]nnc2c1 [1,2,3-Benzotriazole] | 118.9 | 122.2 | – | 120.7 | –
Clc1cccc(Cl)c1Cl [1,2,3-Trichlorobenzene] | – | – | 144.8 | – | –
O=C(O)c1ccc(C(=O)O)c(C(=O)O)c1 [1,2,4-Benzenetricarboxylic acid] | 136.9 | – | – | – | –
O=c1[nH]sc2ccccc12 [1,2-Benzisothiazolin-3-one] | 127.2 | – | – | – | –
CC1=C(C#N)C(=O)N(C)C(=O)C1 [1,2-Dihydro-6-hydroxy-1,4-dimethyl-2-oxonicotinonitrile] | 131.2 | 133.8 | 144.6 | – | –
Cc1ncc([N+](=O)[O-])n1C [1,2-Dimethyl-5-nitroimidazole] | – | 128 | – | – | –
Oc1cc(O)cc(O)c1 [1,3,5-Trihydroxybenzene dihydrate] | 121.6 | – | – | – | –
O=C(O)c1cccc(C(=O)O)c1 [1,3-Benzenedicarboxylic acid] | 133.2 | – | – | – | –

SMILES | collision cross section in nitrogen [1] [Å²] | collision cross section in nitrogen [2] [Å²] | collision cross section in nitrogen [3] [Å²] | collision cross section in nitrogen [4] [Å²] | other results
O=C1CCCC(=O)C1 [1,3-Cyclohexanedione] | 121.3 | 122.6 | – | – | –
CN1C(=CC=O)C(C)(C)c2ccccc21 [1,3-Dihydro-1,3,3-trimethyl-2H-indol-2-ylidene acetaldehyde] | – | 145.1 | – | 144.6 | collision cross section in nitrogen [6]: 143.2 Å²
Cc1cc(C2(c3ccc(O)c(C)c3)C(=O)Nc3ccccc32)ccc1O [1,3-Dihydro-3,3-bis(4-hydroxy-m-tolyl)-2H-indol-2-one] | 190.8 | 185.4 | 196.6 | – | –
N=C1NC(=N)c2cc3ccccc3cc21 [1,3-Diiminobenz(f)isoindoline] | – | 140.1 | – | – | –
O=C(NCO)NCO [1,3-Dimethylolurea] | – | – | 151.7 | – | –
O=[N+]([O-])c1cc([N+](=O)[O-])c2ccccc2c1 [1,3-Dinitronaphthalene] | 138.9 | – | – | – | –
O=C(CC(=O)c1ccccc1)c1ccccc1 [1,3-Diphenyl-1,3-propanedione] | 154.4 | – | 165.9 | – | –
N=C(Nc1ccccc1)Nc1ccccc1 [1,3-Diphenylguanidine] | – | 150.8 | – | 150.7 | –
Nc1ccc(Oc2cccc(Oc3ccc(N)cc3)c2)cc1 [1,3-Phenylenedi(4-aminophenyl ether)] | – | 168.2 | – | 167.2 | collision cross section in nitrogen [6]: 177.7 Å²
Nc1ccc(C(=O)OCCCOC(=O)c2ccc(N)cc2)cc1 [1,3-Propanediyl bis(p-aminobenzoate)] | 166.6 | – | 188.2 | – | –
CC(C)Nc1ccc(NC(C)C)c2c1C(=O)c1ccccc1C2=O [1,4-Bis(N-isopropylamino)anthraquinone] | – | 179.4 | – | 179.1 | collision cross section in nitrogen [6]: 178.2 Å²
Cc1ccc2c(c1N)C(=O)c1ccccc1C2=O [1-Amino-2-methylanthraquinone] | 150.1 | 153.2 | – | 153.6 | collision cross section in nitrogen [6]: 147.6 Å²
c1ccc(C[n+]2cccc3ccccc32)cc1 [1-Benzylquinolinium chloride] | – | – | – | – | collision cross section in nitrogen [7]: 147.6 Å²; collision cross section in nitrogen [5]: 148 Å²
CCCC[N+]1(C)CCCC1 [1-Butyl-1-methylpyrrolidinium chloride] | – | – | – | – | collision cross section in nitrogen [7]: 131.2 Å²; collision cross section in nitrogen [5]: 132.4 Å²
CCCCn1cc[n+](C)c1 [1-Butyl-3-methylimidazolium chloride] | – | – | – | – | collision cross section in nitrogen [7]: 129 Å²; collision cross section in nitrogen [5]: 128.9 Å²
FC(F)(F)c1ccc(Cl)cc1 [1-Chloro-4-(trifluoromethyl)benzene] | – | 142.6 | – | – | –

Further lines, with some results ahead:

collision cross section in nitrogen [1] [Å²] | collision cross section in nitrogen [2] [Å²] | collision cross section in nitrogen [3] [Å²] | collision cross section in nitrogen [4] [Å²] | SMILES | other results
159.6 | – | – | – | Oc1ccc(C2COc3cc(O)ccc3C2)cc1 (racemic) [(R,S)-Equol] | –
– | 226.4 | 222 | – | CC(=O)Oc1c(C)c(C)c2c(c1C)CC[C@@](C)(CCC[C@H](C)CCC[C@H](C)CCCC(C)C)O2 (racemic) [dl-alpha-Tocopheryl acetate] | –
– | 192.8 | 207.7 | 192.4 | CCCCNc1ccc(NCCCC)c2c1C(=O)c1ccccc1C2=O [1,4-Bis(butylamino)anthracene-9,10-dione] | collision cross section in nitrogen [6]: 190.2 Å²
136.1 | – | – | – | O=C(O)C1CCC(C(=O)O)CC1 (stereo not drawn) [1,4-Cyclohexanedicarboxylic acid] | –
149.1 | 151.5 | – | 151.4 | Nc1ccc(N)c2c1C(=O)c1ccccc1C2=O [1,4-Diaminoanthraquinone] | collision cross section in nitrogen [6]: 147.5 Å²
148.9 | – | – | – | O=C1c2ccccc2C(=O)c2c(O)ccc(O)c21 [1,4-Dihydroxyanthracene-9,10-dione] | –
– | 150.2 | – | 150.3 | NCCCN1CCN(CCCN)CC1 [1,4-Piperazinedipropanamine] | –
159.4 | – | – | – | Nc1ccc2c(S(=O)(=O)O)cccc2c1S(=O)(=O)O [1,5-Naphthalenedisulfonic acid, 2-amino-, sodium salt (1:1)] | –
156.3 | – | – | – | O=S(=O)(O)c1cccc2c(S(=O)(=O)O)cccc12 [1,5-Naphthalenedisulfonic acid, disodium salt hydrate] | –
– | – | 157.7 | – | C=CC(=O)OCCCCCCOC(=O)C=C [1,6-Hexanediol diacrylate] | –
– | – | 167.3 | – | C=C(C)C(=O)OCCCCCCOC(=O)C(=C)C [1,6-Hexanediol dimethacrylate] | –
136.8 | – | – | 134.2 | Cn1c(=O)[nH]c2ncn(C)c2c1=O [1,7-Dimethylxanthine] | –
– | – | 184.9 | – | C=C(C)C(=O)OCCCCCCCCCCOC(=O)C(=C)C [1,10-Decanediol dimethacrylate] | –
– | 131.6 | 145.7 | 131.8 | c1cnc2c(c1)ccc1cccnc12 [1,10-Phenanthroline hydrochloride hydrate] | –
– | 132.4 | 146 | 131.3 | c1cnc2c(c1)ccc1cccnc12 [1,10-Phenanthroline] | –
116.1 | – | – | – | Oc1ccccc1O [1,2-Benzenediol] | –
– | – | – | 129.2 | CC(=O)c1sc(C)nc1C [1-(2,4-Dimethyl-1,3-thiazol-5-yl)ethanone] | –
– | – | – | 153.5 | O=C1Cc2ccccc2N1c1c(Cl)cccc1Cl [1-(2,6-Dichlorophenyl)-2-indolinone] | –
130.1 | – | – | – | CC(=O)c1ccc(O)cc1Br [1-(2-Bromo-4-hydroxyphenyl)ethanone] | –
– | – | – | 143.3 | CCC(=O)C=Cc1ccc(OC)cc1 [1-(4-Methoxyphenyl)-1-pentene-3-one] | –
– | 151.6 | – | – | CNc1cccc2c1C(=O)c1ccccc1C2=O [1-(Methylamino)anthraquinone] | –
– | 144.7 | 148.5 | 144.7 | Cc1ccccc1NC(=N)NC(=N)N [1-(o-Tolyl)biguanide] | –
– | – | 172.2 | – | CC=Cc1ccc(OCc2ccccc2)c(OC)c1 [1-Benzyloxy-2-methoxy-4-(1-propenyl)benzene] | –
– | 140.3 | 157.7 | 139.2 | O=C1CCCN1C1CCCCC1 [1-Cyclohexylpyrrolidin-2-one] | –
– | 164 | – | – | CCCCCCCCCCCCN [1-Dodecanamine] | –
– | 176.3 | 176.6 | – | CCCCCCCCCCCCN1CCCC1=O [1-Dodecyl-2-pyrrolidinone] | –
– | – | – | 121.7 | CCN1CCCC1=O [1-Ethyl-2-pyrrolidinone] | –
